Data set [1] concerns the target T1, Progesterone receptor (Homo sapiens, UniProt P06401).
T1 sequence (P06401 whole entry): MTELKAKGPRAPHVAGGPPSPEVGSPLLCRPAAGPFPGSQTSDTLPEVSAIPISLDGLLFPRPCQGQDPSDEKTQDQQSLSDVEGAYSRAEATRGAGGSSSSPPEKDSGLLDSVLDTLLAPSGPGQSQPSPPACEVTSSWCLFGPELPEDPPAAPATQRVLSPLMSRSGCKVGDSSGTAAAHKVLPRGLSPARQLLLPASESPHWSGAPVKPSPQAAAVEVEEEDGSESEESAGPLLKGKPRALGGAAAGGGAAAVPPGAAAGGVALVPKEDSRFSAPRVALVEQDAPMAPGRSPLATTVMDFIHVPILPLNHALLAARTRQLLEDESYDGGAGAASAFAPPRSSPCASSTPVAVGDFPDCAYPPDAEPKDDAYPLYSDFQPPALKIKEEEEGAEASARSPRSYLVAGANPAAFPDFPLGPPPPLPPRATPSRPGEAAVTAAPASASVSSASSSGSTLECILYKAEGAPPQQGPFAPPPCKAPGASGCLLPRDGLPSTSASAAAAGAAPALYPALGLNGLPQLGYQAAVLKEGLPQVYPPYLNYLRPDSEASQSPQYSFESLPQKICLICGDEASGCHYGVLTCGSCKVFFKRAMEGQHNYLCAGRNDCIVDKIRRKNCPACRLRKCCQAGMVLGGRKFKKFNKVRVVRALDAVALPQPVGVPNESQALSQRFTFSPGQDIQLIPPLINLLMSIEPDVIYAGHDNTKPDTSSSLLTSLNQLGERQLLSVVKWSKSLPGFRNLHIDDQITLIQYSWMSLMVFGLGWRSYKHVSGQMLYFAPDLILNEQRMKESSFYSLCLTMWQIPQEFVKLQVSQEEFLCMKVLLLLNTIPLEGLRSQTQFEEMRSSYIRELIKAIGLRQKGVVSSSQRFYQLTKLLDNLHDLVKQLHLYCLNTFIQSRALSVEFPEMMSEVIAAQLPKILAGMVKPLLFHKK
As to the kind of experiment: Antagonist activity at progesterone receptor LBD expressed in human HUH7 cells coexpressing GAL4 by luciferase reporter gene assay. Type of data set: functional, cell-based, Huh-7.

Data set [2] is described as follows: Solubility of the compound. Type of data set: physicochemical.
Data set [3] deals with Cytochrome P450 2D6 (Homo sapiens, UniProt P10635). Kind of data set: Inhibition of CYP2D6. Type of data set: ADME.
Cytochrome P450 2D6, sequence (P10635 whole entry): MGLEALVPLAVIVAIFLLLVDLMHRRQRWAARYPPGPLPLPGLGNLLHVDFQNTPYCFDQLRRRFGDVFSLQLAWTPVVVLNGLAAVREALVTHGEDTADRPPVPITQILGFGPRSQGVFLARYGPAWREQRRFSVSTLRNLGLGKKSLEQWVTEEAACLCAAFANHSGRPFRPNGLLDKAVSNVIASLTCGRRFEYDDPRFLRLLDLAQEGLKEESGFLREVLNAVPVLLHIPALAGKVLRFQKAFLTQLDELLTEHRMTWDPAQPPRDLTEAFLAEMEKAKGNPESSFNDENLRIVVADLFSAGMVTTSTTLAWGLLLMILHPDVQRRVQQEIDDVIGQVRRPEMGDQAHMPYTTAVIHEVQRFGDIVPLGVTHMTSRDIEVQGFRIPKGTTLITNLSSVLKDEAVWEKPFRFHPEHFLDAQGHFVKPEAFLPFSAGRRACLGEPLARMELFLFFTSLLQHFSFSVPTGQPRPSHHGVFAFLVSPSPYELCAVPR
Data set [4] concerns Rattus norvegicus. As to the kind of experiment: Protection of renal injury in Dahl salt-sensitive rat model assessed as reduction of urinal albumin excretion at 60 mg/kg, po bid for 21 days. Type of data set: functional, organism-based. Further details: dose 60 mg/kg.
The subject of data set [5] is Rattus norvegicus. Kind of data set: Antihypertensive activity in Dahl salt-sensitive rat model assessed as decrease of systolic blood pressure at 60 mg/kg, po bid for 21 days. The format is functional, organism-based. More on the design: dose 60 mg/kg. As to conditions: Artery.
The nature of data set [6]: Clearance in Sprague-Dawley rat at 5 mg/kg, iv. Type of data set: ADME, organism-based. Further details: dose 5 mg/kg, route intravenous. As to conditions: in vivo.
Data set [7] in a line: Half life in Sprague-Dawley rat at 5 mg/kg, iv. The format is ADME, organism-based. Further details: dose 5 mg/kg, route intravenous. As to conditions: in vivo.
Data set [8] in a line: Volume of distribution at steady state in Sprague-Dawley rat at 5 mg/kg, iv. More on the design: dose 5 mg/kg, route intravenous. To be noted: in vivo, read-out: Vdss. The format is ADME, organism-based.

Structures are written as SMILES. ≈ marks a conversion by molar mass, not a printed value. Calls of active or inactive are those of the source. No cut-off for these calls is given here. Some results are limits rather than exact numbers.

For the compound `COC(=O)C1=C(C)NC(C)=C(C#N)C1c1ccc(F)cc1Cl` (stereo not given), the IC50 – broadly, the concentration at which inhibition is half-maximal – in data set [1] came to 0.9 µM. In addition, the solubility (usually how much of the substance goes into solution per volume) in data set [2] worked out at 10 µM (≈ 3.21 µg/mL). Moreover, in data set [3], the “inhibition (INH)” value was found to be 0%.
On to `COC(=O)C1=C(Cn2cnnn2)NC(C)=C(C#N)C1c1ccc(F)cc1Cl` (stereo not given), for which the result in data set [4] and in data set [5] was Active. For the same compound, the IC50 in data set [1] and in data set [3] was above 10 µM each time. Also, the solubility in data set [2] was 31 µM (≈ 12.1 µg/mL). In addition, the clearance (as a rule, the rate of elimination divided by the concentration) in data set [6] is 14.1 mL/min/kg. For the same compound, the half-life (as a rule, how long it takes for the measured level to halve) in data set [7] is 4.84 h. Besides, the Vd in data set [8] is 0.9 L/kg.
Consider `COC(=O)C1=C(Cn2ccnc2)NC(C)=C(C#N)C1c1ccc(F)cc1Cl` (stereo not given), for which the IC50 in data set [1] and in data set [3] was above 10 µM throughout. Besides, in data set [2], the concentration in solution (solubility) came to 5 µM (≈ 1.93 µg/mL).
Turning to `COC(=O)C1=C(Cn2cncn2)NC(C)=C(C#N)C1c1ccc(F)cc1Cl` (stereo not given), the half-maximal inhibitory concentration (IC50) was 7 µM in data set [1] and above 10 µM in data set [3]. The compound further yielded a solubility in data set [2] above 5 µM.
Take `CCCC1=C(C(=O)OC)C(c2ccccc2Cl)C(C#N)=C(C)N1` (stereo not given): inhibition in data set [1] was half-maximal at 0.2 µM (IC50). This compound also gave a solubility in data set [2] below 5 µM. The “inhibition (INH)” value in data set [3] came to 19%.

These data come from ChEMBL document CHEMBL1212896, “Discovery of novel cyanodihydropyridines as potent mineralocorticoid receptor antagonists” (J Med Chem, 2010).
